Data: US20240381872A1, “SUBSTITUTED 2,3-DIHYDRO[1,3]THIAZOLO[4,5-B]PYRIDINES, SALTS THEREOF AND THEIR USE AS HERBICIDALLY ACTIVE SUBSTANCES” (BAYER AKTIENGESELLSCHAFT, priority 2021, published 2024)

How the values were obtained:
Assay type in all cases: in vivo
[1] = system: Abutilon theophrasti (ABUTH); experiment: Herbicidal pre-emergence action, section A (Table A1); settings: Abutilon theophrasti, pre-emergence, 504 h, visual grading after ca. 3 weeks vs untreated controls, read-out: pre-emergence activity against ABUTH in %
Procedure, shortened: (§1)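 Pre-emergence soil-surface application: WP or EC formulations in water plus 0.5% additive, sprayed at 600 l/ha onto soil covering seeds sown in sandy loam. Visual percent damage rated at about 3 weeks against untreated pots, 100% meaning plants died off and 0% meaning like controls.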

Zea mays (ZEAMX) [2] = experiment: Pre-emergence effects on crop plants, section D (Table D1); settings: visual grading after ca. 3 weeks
Procedure, shortened: (§2)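 Read-out: visual percent injury versus untreated controls at ca. 3 weeks (0% as control, 100% dead). Treatment: aqueous WP/EC suspension or emulsion with 0.5% additive, 600 l/ha, on soil covering seeds in sandy loam, at 320 g/ha or below, under optimum greenhouse conditions.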

Lolium rigidum (LOLRI) = experiment: Herbicidal pre-emergence action, section C (Table C5); settings: Lolium rigidum, pre-emergence, 504 h, visual grading after ca. 3 weeks, read-out: pre-emergence activity against LOLRI in %
Procedure, shortened: (§3)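 Seeds sown in sandy loam and covered with soil; compounds formulated as WP or EC were sprayed onto the covering soil as aqueous suspension/emulsion with 0.5% additive at 600 l water/ha. Pots kept in greenhouse under optimum conditions; damage graded visually after ca. 3 weeks versus untreated controls (0–100%).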

Oryza sativa (ORYZA) = experiment: Post-emergence effects on crop plants, section F (Table F3); settings: Oryza sativa, 504 h, read-out: post-emergence activity against ORYZA in %
Procedure, shortened: (§4)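 Crop seeds were sown in sandy loam in pots and greenhouse-grown; at the single-leaf stage, 2 to 3 weeks after sowing, plants were sprayed with WP or EC formulations plus 0.5% additive at 600 l water/ha, 320 g/ha or below. Damage was scored visually about 3 weeks later versus untreated controls (0–100%).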

Zea mays (ZEAMX) [3] = experiment: Post-emergence effects on crop plants, section F (Table F1); settings: Zea mays, 504 h, application rate 320 g/ha, read-out: post-emergence activity against ZEAMX in %
Procedure, shortened: as §4

[4] = system: Digitaria sanguinalis (DIGSA); experiment: Herbicidal post-emergence action, section B (Table B12); settings: Digitaria sanguinalis, post-emergence, 504 h, visual rating about 3 weeks after treatment vs untreated controls, read-out: post-emergence activity against DIGSA in %
Procedure, shortened: (§5)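 Post-emergence greenhouse test. One-leaf stage; WP or EC plus 0.5% additive; 600 liters per hectare water volume; visual % rating at ~3 weeks relative to untreated plants.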

[5] = system: Echinochloa crus-galli (ECHCG); experiment: Herbicidal post-emergence action, section B (Table B3); settings: Echinochloa crus-galli, 504 h, application rate 1280 g/ha, rated visually after about 3 weeks, read-out: post-emergence activity against ECHCG in %
Procedure, shortened: as §5

Setaria viridis (SETVI) [6] = experiment: Herbicidal pre-emergence action, section C (Table C8); settings: Setaria viridis, pre-emergence, 504 h, visual grading after ca. 3 weeks, read-out: pre-emergence activity against SETVI in %
Procedure, shortened: as §3

Setaria viridis (SETVI) [7] = experiment: Herbicidal pre-emergence action, section A (Table A8); settings: Setaria viridis, 504 h, application rate 1280 g/ha, read-out: pre-emergence activity against SETVI in %
Procedure, shortened: as §1

[8] = system: Triticum aestivum (TRZAS); experiment: Pre-emergence effects on crop plants, section D (Table D2); settings: application rate 80 g/ha; visual grading after ca. 3 weeks
Procedure, shortened: as §2

[9] = system: Echinochloa crus-galli (ECHCG); experiment: Herbicidal pre-emergence action, section A (Table A3); settings: Echinochloa crus-galli, pre-emergence, 504 h; application rate 1280 g/ha; visual grading after ca. 3 weeks vs untreated controls; read-out: pre-emergence activity against ECHCG in %
Procedure, shortened: as §1

Veronica persica (VERPE) = experiment: Herbicidal pre-emergence action, section A (Table A10); settings: Veronica persica, 504 h, read-out: pre-emergence activity against VERPE in %
Procedure, shortened: as §1

SMILES	pest or weed control at 1280 g/ha ([1]; application rate 1280 g/ha) [%]	pre-emergence activity against ZEAMX in % (crop plant damage) (Zea mays (ZEAMX) [2]; application rate 320 g/ha) [%]	pest or weed control at 320 g/ha (Lolium rigidum (LOLRI); application rate 320 g/ha) [%]	percent crop plant damage at 320 g/ha (Oryza sativa (ORYZA); application rate 320 g/ha) [%]	percent crop plant damage (phytotoxicity) on Zea mays, post-emergence at 320 g/ha (Zea mays (ZEAMX) [3]) [%]	pest or weed control at 1280 g/ha ([4]; application rate 1280 g/ha) [%]	pest or weed control at 1280 g/ha [5] [%]	pest or weed control at 320 g/ha (Setaria viridis (SETVI) [6]; application rate 320 g/ha) [%]	pest or weed control at 1280 g/ha (Setaria viridis (SETVI) [7]) [%]	pre-emergence activity against TRZAS in % (crop plant damage) [8] [%]	pest or weed control at 1280 g/ha [9] [%]	pest or weed control at 320 g/ha (Veronica persica (VERPE); application rate 320 g/ha) [%]	pest or weed control at 320 g/ha ([1]; application rate 320 g/ha) [%]	pre-emergence activity against ZEAMX in % (crop plant damage) (Zea mays (ZEAMX) [2]; application rate 80 g/ha) [%]	pest or weed control at 80 g/ha (Lolium rigidum (LOLRI); application rate 80 g/ha) [%]	percent crop plant damage at 80 g/ha (Oryza sativa (ORYZA); application rate 80 g/ha) [%]	pest or weed control at 320 g/ha ([4]; application rate 320 g/ha) [%]	pest or weed control at 80 g/ha (Setaria viridis (SETVI) [6]; application rate 80 g/ha) [%]	pest or weed control at 1280 g/ha (Veronica persica (VERPE); application rate 1280 g/ha) [%]
CC(=O)N1CSc2cc(Br)c(-c3ccccc3Cl)nc21 [Example I-055, 1-[6-bromo-5-(2-chlorophenyl)[1,3]thiazolo[4,5-b]pyridin-3(2H)-yl]ethanone]	90	0	90	0	0	90	90	100	100	0	100	90							
CCS(=O)(=O)N1CSc2cc(C)c(-c3ccccc3F)nc21 [Example I-060, 3-(ethylsulfonyl)-5-(2-fluorophenyl)-6-methyl-2,3-dihydro[1,3]thiazolo[4,5-b]pyridine]					0		90		100		100		90	20	100	0	90	100	90
